Patent publication US20090105197A1 (priority 2001, published 2009)
Values joined by “and” are separate entries in the source; they are usually repeats but may differ in a detail not shown here. Equal entries are not always repeated.

Tests used:
[1] = system: acetic acid-induced writhing in mice; assay: animal or person; assay type: in vivo, Kunming mice; details: for ID95 (95% inhibition dose) of aspirin: i.m.
[2] = system: heat-induced tail flick in mice; details: mouse, in vivo
[3] = Mus musculus, im, read-out: inhibition Rate (%)
[4] = combined with small doses of TTX (1/25 and 1/50 LD50) versus aspirin alone

SMILES | Average Writhing movements ([1]; ASP alone 25 mg/kg i.m.) | Average Writhing movements ([1]; ASP alone 50 mg/kg i.m.) | Average Writhing movements ([1]; ASP alone 100 mg/kg i.m.) | Average Writhing movements ([1]; ASP alone 150 mg/kg i.m.) | Average Writhing movements ([1]; ASP alone 200 mg/kg i.m.) | inhibition at 25 mg/kg [1, 3] [%] | inhibition at 50 mg/kg [1, 3] [%] | inhibition at 100 mg/kg [1, 3] [%] | inhibition at 150 mg/kg [1, 3] [%] | inhibition at 200 mg/kg [1, 3] [%] | ID95 (95% inhibition dose) of aspirin ([1]; aspirin alone) [mg/kg] | ID95 (95% inhibition dose) of aspirin ([1]; aspirin alone, listed as aspirin) | ID95 (95% inhibition dose) of aspirin ([1]; aspirin combined with TTX 0.39 μg/kg (1/50 LD50)) | ID95 (95% inhibition dose) of aspirin ([1]; aspirin combined with TTX 0.79 μg/kg (1/25 LD50)) | reduction of ID50 of aspirin [1, 4] | reduction of ID95 of aspirin [1, 4] | Average Writhing movements ([1]; mouse, in vivo, 3 mg/kg) | Average Writhing movements ([1]; mouse, in vivo, ip, 3 mg/kg) | analgesic effect with escalating doses [2]
CC(=O)Oc1ccccc1C(=O)O [ASP, Aspirin] | 25.1 ± 14.5 | 19.3 ± 13.8 | 12.0 ± 9.2 | 5.2 ± 5.7 | 2.7 ± 1.9 | 35.6 | 50.6 | 69.3 | 86.6 | 93.2 | 361.8 | 361.8 mg/kg and 361.77 mg/kg | 154.3 mg/kg and 154.33 mg/kg | 94.5 mg/kg and 94.47 mg/kg | exceeded two folds | exceeded two folds |  |  | 
NC1=N[C@H](O)[C@H]2[C@H]3O[C@]4(O)O[C@@H]([C@@H](O)[C@@]2(N1)[C@@H]4O)[C@]3(O)CO [TTX, Tetrodotoxin] |  |  |  |  |  |  |  |  |  |  |  |  |  |  |  |  | 28.2 ± 9.65 | 23.2 ± 11.7 | did not increase markedly with escalating doses
